According to ChEMBL document CHEMBL1138649, “Urea derivatives of STI571 as inhibitors of Bcr-Abl and PDGFR kinases” (Bioorg Med Chem Lett, 2004):
pIC50: −log10 of the molar value.

What was measured:
[1] = Inhibitory concentration required to inhibit PDGFR kinase was determined
[2] = target: Tyrosine-protein kinase ABL1 (Homo sapiens, UniProt P00519); assay: Inhibitory concentration required to inhibit Abl tyrosine kinase
[3] = target: T1, Breakpoint cluster region protein (Homo sapiens, UniProt P11274); assay: Inhibitory concentration required to inhibit Bcr-Abl tyrosine kinase
T1 sequence (P11274 whole entry): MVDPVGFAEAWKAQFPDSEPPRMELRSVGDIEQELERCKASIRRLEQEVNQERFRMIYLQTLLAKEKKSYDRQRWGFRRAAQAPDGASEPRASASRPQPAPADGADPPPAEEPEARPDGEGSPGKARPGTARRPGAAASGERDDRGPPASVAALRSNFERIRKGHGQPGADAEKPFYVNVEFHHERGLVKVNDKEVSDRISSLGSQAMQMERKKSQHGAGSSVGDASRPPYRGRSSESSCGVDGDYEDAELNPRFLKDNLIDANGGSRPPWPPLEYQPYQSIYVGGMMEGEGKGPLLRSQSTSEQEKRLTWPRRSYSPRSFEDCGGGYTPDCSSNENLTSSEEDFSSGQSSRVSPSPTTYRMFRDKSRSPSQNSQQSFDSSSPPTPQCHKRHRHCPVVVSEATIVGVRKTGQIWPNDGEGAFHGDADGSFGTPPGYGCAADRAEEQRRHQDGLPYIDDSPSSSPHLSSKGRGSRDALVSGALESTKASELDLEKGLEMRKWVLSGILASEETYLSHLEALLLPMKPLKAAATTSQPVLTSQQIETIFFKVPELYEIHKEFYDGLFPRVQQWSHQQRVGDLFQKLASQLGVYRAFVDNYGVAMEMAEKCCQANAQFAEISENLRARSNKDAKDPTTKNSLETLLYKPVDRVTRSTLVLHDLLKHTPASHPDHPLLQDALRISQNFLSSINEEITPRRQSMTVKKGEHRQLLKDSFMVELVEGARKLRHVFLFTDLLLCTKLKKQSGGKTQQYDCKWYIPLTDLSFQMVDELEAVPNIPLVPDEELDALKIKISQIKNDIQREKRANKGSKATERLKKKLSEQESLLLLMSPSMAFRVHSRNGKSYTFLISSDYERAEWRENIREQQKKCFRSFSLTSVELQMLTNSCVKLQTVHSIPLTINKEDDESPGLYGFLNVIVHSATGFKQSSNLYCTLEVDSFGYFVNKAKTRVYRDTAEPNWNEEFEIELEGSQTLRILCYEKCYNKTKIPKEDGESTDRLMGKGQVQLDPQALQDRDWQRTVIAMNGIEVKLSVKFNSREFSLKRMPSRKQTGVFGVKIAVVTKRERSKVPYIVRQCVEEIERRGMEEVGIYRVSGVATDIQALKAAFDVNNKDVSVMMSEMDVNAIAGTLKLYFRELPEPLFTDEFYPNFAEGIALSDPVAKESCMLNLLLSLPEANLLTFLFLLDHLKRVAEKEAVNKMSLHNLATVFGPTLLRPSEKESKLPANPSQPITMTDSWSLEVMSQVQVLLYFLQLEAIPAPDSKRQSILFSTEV

[4] = Maximum plasma concentration was determined in mice after 20 mg/kg oral administration of the compound; type: ADME, organism-based; set-up: dose 20 mg/kg, route oral; details: mouse
[5] = Plasma concentration after 120 minutes gavage was determined in mice after 20 mg/kg oral administration of the compound; type: ADME, organism-based; set-up: dose 20 mg/kg, route oral; details: mouse, read-out: C120
[6] = Maximum plasma concentration time in minutes was determined in mice after 20 mg/kg oral administration of the compound; type: ADME, organism-based; set-up: dose 20 mg/kg, route oral; details: mouse

Chain of Tyrosine-protein kinase ABL1 (P00519 whole entry): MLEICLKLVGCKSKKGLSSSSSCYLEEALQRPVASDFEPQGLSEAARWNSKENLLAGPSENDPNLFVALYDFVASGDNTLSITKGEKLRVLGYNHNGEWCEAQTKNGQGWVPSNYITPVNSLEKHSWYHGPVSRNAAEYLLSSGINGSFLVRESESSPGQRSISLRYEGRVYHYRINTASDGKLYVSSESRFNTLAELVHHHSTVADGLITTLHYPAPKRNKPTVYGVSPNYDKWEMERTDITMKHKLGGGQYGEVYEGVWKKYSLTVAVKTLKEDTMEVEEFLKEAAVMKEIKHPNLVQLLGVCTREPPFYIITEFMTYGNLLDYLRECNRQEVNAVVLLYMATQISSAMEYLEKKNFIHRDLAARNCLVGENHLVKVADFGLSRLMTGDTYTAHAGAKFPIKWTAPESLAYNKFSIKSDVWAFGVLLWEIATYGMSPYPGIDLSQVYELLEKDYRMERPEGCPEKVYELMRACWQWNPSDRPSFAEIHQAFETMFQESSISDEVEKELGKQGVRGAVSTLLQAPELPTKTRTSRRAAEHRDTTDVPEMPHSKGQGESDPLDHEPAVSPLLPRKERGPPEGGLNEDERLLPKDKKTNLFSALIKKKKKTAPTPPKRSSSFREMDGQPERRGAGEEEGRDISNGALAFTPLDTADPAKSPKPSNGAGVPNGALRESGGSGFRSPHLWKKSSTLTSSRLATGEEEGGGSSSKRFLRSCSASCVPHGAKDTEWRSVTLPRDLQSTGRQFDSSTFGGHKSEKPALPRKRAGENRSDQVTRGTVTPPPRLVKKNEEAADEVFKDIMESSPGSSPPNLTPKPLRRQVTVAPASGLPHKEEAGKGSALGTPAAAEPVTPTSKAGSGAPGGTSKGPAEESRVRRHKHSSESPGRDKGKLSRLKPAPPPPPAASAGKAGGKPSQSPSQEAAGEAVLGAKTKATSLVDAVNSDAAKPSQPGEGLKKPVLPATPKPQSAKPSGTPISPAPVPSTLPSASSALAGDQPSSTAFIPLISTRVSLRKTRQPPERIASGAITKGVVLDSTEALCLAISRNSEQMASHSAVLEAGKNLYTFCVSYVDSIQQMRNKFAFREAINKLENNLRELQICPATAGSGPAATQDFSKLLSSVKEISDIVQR

Structure (SMILES) | pIC50 [1] | pIC50 [2] | other results
Cc1ccc(NC(=O)Nc2ccc(N(C)C)cc2)cc1Nc1nccc(-c2cccnc2)n1 | 5.76 | < 5.30 | pIC50 ([3]; read-out: IC50): < 5.00
CCN(CC)c1ccc(NC(=O)Nc2ccc(C)c(Nc3nccc(-c4cccnc4)n3)c2)cc1 | 5.69 | < 5.47 | pIC50 ([3]; read-out: IC50): < 5.00
Cc1ccc(NC(=O)NCCCn2ccnc2)cc1Nc1nccc(-c2cccnc2)n1 | < 5.89 |  | 
Cc1ccc(NC(=O)Nc2cccc(CN3CCN(C)CC3)c2)cc1Nc1nccc(-c2cccnc2)n1 | 6.72 |  | 
Cc1ccc(NC(=O)Nc2cccc(Cl)c2)cc1Nc1nccc(-c2cccnc2)n1 | 7.77 | 6.76 | pIC50 ([3]; read-out: IC50): 6.00
Cc1ccc(NC(=O)NCc2ccc(N(C)C)cc2)cc1Nc1nccc(-c2cccnc2)n1 | 6.63 |  | 
Cc1ccc(NC(=O)Nc2cccc3[nH]ncc23)cc1Nc1nccc(-c2cccnc2)n1 | 6.43 |  | 
Cc1ccc(NC(=O)Nc2ccccc2CN(C)C2CCCCC2)cc1Nc1nccc(-c2cccnc2)n1 | 7.00 | 6.06 | 
Cc1ccc(NC(=O)Nc2cccc3ncccc23)cc1Nc1nccc(-c2cccnc2)n1 | 7.19 |  | Cmax [4]: 170 nM; concentration at 2 h [5]: 50 nM; Tmax [6]: 30 min
CCN(CC)c1cccc(NC(=O)Nc2ccc(C)c(Nc3nccc(-c4cccnc4)n3)c2)c1 | 7.33 | 6.55 | pIC50 ([3]; read-out: IC50): < 6.00
Cc1ccc(NC(=O)Nc2cccc(N(C)C)c2)cc1Nc1nccc(-c2cccnc2)n1 | 7.59 | 7.25 | pIC50 [3]: 6.24; Cmax [4]: 1370 nM; concentration at 2 h [5]: 300 nM; Tmax [6]: 30 min

Now from value to molecule, other results behind:

pIC50 [1] | pIC50 [2] | Structure (SMILES) | other results
6.59 |  | Cc1ccc(NC(=O)N2CCN(Cc3ccncc3)CC2)cc1Nc1nccc(-c2cccnc2)n1 | 
< 5.52 |  | Cc1ccc(NC(=O)NCCCO)cc1Nc1nccc(-c2cccnc2)n1 | 
< 5.60 |  | Cc1ccc(NC(=O)Nc2cccc(N3CCCC3)c2)cc1Nc1nccc(-c2cccnc2)n1 | 
6.38 |  | Cc1ccc(NC(=O)NCCCN2CCOCC2)cc1Nc1nccc(-c2cccnc2)n1 | 
< 5.52 |  | Cc1ccc(NC(=O)N(C)CCCO)cc1Nc1nccc(-c2cccnc2)n1 | 
7.20 |  | Cc1ccc(NC(=O)N2CCCCC2)cc1Nc1nccc(-c2cccnc2)n1 | Cmax [4]: 4320 nM; concentration at 2 h [5]: 510 nM; Tmax [6]: 30 min
6.88 |  | Cc1ccc(NC(=O)N2CCN(C)CC2)cc1Nc1nccc(-c2cccnc2)n1 | pIC50 ([3]; read-out: IC50): < 5.30
< 5.80 |  | Cc1ccc(NC(=O)NCCCN(C)C)cc1Nc1nccc(-c2cccnc2)n1 | 
7.02 | 6.00 | Cc1ccc(NC(=O)Nc2cccnc2)cc1Nc1nccc(-c2cccnc2)n1 | 
6.75 |  | Cc1ccc(NC(=O)N2CCC(N3CCCC3)CC2)cc1Nc1nccc(-c2cccnc2)n1 | 
6.18 |  | Cc1ccc(NC(=O)NCCN2CCCC2)cc1Nc1nccc(-c2cccnc2)n1 | pIC50 ([3]; read-out: IC50): < 5.05
